According to patent publication US12060351B2, “Thiadiazole IRAK4 inhibitors” (Gilead Sciences, Inc., priority 2018, dated 2024):
Read-outs that look alike come from different tables or passages of the source.

Experiments:
[1] = system: TNFα; test: IRAK4 Monocyte TNFα Cell Based Assay (LPS-stimulated, TR-FRET TNFα detection); parameters: species or system human; settings: Homo sapiens, Monocyte, read-out: EC50 MONO TNF HTRF
Procedure, shortened: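 Monocytes (5,000 cells/well) treated with compound (0.1% DMSO) for 1 hour at 37° C, then stimulated with 50 pg/ml LPS for 4 hours. TNFα in medium quantified by TR-FRET two-antibody detection after overnight room-temperature incubation. Percent of control calculated against unstimulated (0%) and LPS-stimulated (100%) cells.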

[2] = biological target: T1, IRAK4 enzyme (Homo sapiens, UniProt Q9NWZ3); test: IRAK4 Biochemical Assay (TR-FRET, STK1 KinEASE); settings: 500 μM ATP, Table 2 second part (compounds 33-343), read-out: IC50 IRAK4-HTBS
T1 construct: purchased Carna Biosciences, Chuo-ku, Kobe, Japan
T1 sequence (Q9NWZ3 1-460): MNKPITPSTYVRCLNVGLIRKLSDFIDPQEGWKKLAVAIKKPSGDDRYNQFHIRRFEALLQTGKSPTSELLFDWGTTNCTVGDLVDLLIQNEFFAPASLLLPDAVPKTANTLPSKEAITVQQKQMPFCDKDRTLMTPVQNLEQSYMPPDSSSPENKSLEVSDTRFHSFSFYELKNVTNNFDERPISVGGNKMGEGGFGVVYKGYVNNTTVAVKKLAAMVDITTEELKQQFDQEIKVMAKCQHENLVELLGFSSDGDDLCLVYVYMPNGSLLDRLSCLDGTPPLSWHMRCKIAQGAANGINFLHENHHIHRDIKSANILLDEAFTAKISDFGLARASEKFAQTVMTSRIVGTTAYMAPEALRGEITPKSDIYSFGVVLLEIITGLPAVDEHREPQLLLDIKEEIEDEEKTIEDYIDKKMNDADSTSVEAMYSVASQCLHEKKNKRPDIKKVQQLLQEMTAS
Procedure: IRAK4 enzyme (Carna Biosciences, Chuo-ku, Kobe, Japan) activity was measured by detecting phosphorylated peptide substrate formation using an antibody against the phosphorylated peptide substrate. This is a time-resolved fluorescence resonance energy transfer (TR-FRET) immunoassay, based on the STK1 KinEASE Assay (Cisbio, Bedford, Massachusetts). The assay was designed as a simple two-step, endpoint assay (a 5 μl enzyme reaction followed by 5 μl stop and detect Solution) performed in ProxiPlate-384 Plus plates (Perkin Elmer, Waltham, Massachusetts). […] Compounds diluted in DMSO were spotted into 384 well plates using a Labcyte® Echo 550 Liquid Handling System prior to addition of IRAK4 enzyme and peptide substrate. Reaction solutions were delivered using a Multi-Flo (Bio-Tek Instruments). The enzyme and peptide solution was incubated with compound for 15 minutes at room temp before the reaction was initiated by the addition of ATP. The standard 5 μl reaction mixture contained 500 μM ATP, 2 μM peptide (STK1 Peptide), 0.75 nM of IRAK4 in reaction buffer (50 mM HEPES, pH 7.0, 0.02% NaN3, 0.01% BSA, 0.1 mM Orthovanadate, 5 mM MgCl2, 0.025% NP-40, 1 mM DTT). After 120 min of incubation at room temperature, 5 μl of Stop and Detect Solution (1:100 Cryptate labeled anti-phosphorylated peptide antibody solution and 125 nM Tracer in a 50 mM HEPES pH 7.0 detection buffer containing sufficient EDTA) was added. The plate was then further incubated for 60 minutes at room temperature and read on Envision 2103 Multilabeled reader (PerkinElmer) with excitation/emission/FRET emission at 340 nm/615 nm/665 nm, respectively. Fluorescence intensities at 615 nm and 665 nm emission wavelengths were expressed as a ratio (665 nm/615 nm).

[3] = human monocytes, LPS-stimulated, Table 2 second part (compounds 33-343)

| Structure (SMILES) | EC50 [1, 3] | IC50 [2] | EC50 [1] |
| --- | --- | --- | --- |
| COC(=O)NC[C@H]1C[C@H](Nc2cc(-c3ccc4cc(C#N)cnn34)ncc2-c2nnc(N3C[C@H]4CC[C@@H](C3)[C@@H]4NC(C)=O)s2)C1 [Example 52, methyl (((1R,3r)-3-((5-(5-((1R,5S,8S)-8-acetamido-3-azabicyclo[3.2.1]octan-3-yl)-1,3,4-thiadiazol-2-yl)-2-(3-cyanopyrrolo[1,2-b]pyridazin-7-yl)pyridin-4-yl)amino)cyclobutyl)methyl)carbamate] | 4.1 nM | 0.82 nM |  |
| COC(=O)N[C@H]1CC[C@H](Nc2cc(-c3ccc4cc(C#N)cnn34)ncc2-c2nnc(N3C[C@H]4CC[C@@H](C3)[C@@H]4NC(C)=O)s2)CC1 [Example 54, methyl ((1R,4r)-4-((5-(5-((1R,5S,8S)-8-acetamido-3-azabicyclo[3.2.1]octan-3-yl)-1,3,4-thiadiazol-2-yl)-2-(3-cyanopyrrolo[1,2-b]pyridazin-7-yl)pyridin-4-yl)amino)cyclohexyl)carbamate] | 2.4 nM | 0.73 nM |  |
| CC(=O)N[C@H]1C[C@H]2CC[C@@H](C1)N2c1nnc(-c2cnc(-c3ccc4cc(C#N)cnn34)cc2NC(C)C)s1 [Example 55, N-((1R,3r,5S)-8-(5-(6-(3-cyanopyrrolo[1,2-b]pyridazin-7-yl)-4-(isopropylamino)pyridin-3-yl)-1,3,4-thiadiazol-2-yl)-8-azabicyclo[3.2.1]octan-3-yl)acetamide] |  | 0.54 nM | 115 nM |
| CC(=O)N[C@@H]1C[C@H]2CC[C@@H](C1)N2c1nnc(-c2cnc(-c3ccc4cc(C#N)cnn34)cc2NC(C)C)s1 [Example 56, N-((1R,3s,5S)-8-(5-(6-(3-cyanopyrrolo[1,2-b]pyridazin-7-yl)-4-(isopropylamino)pyridin-3-yl)-1,3,4-thiadiazol-2-yl)-8-azabicyclo[3.2.1]octan-3-yl)acetamide] |  | 0.49 nM | 8.3 nM |
| CC(C)Nc1cc(-c2ccc3cc(C#N)cnn23)ncc1-c1nnc(N2C[C@H]3CC[C@@H](C2)[C@@H]3NC(=O)N2CCOCC2)s1 [Example 57, N-((1R,5S,8s)-3-(5-(6-(3-cyanopyrrolo[1,2-b]pyridazin-7-yl)-4-(isopropylamino)pyridin-3-yl)-1,3,4-thiadiazol-2-yl)-3-azabicyclo[3.2.1]octan-8-yl)morpholine-4-carboxamide] | 6.8 nM | 1.16 nM |  |
| CC(C)Nc1cc(-c2ccc3cc(C#N)cnn23)ncc1-c1nnc(N2C[C@H]3CC[C@@H](C2)[C@@H]3NS(C)(=O)=O)s1 [Example 58, N-((1R,5S,8s)-3-(5-(6-(3-cyanopyrrolo[1,2-b]pyridazin-7-yl)-4-(isopropylamino)pyridin-3-yl)-1,3,4-thiadiazol-2-yl)-3-azabicyclo[3.2.1]octan-8-yl)methanesulfonamide] | 9.3 nM | 1.88 nM |  |
| COC(=O)N[C@@H]1[C@@H]2CC[C@H]1CN(c1nnc(-c3cnc(-c4ccc5cc(C#N)cnn45)cc3NC(C)C)s1)C2 [Example 59, methyl ((1R,5S,8s)-3-(5-(6-(3-cyanopyrrolo[1,2-b]pyridazin-7-yl)-4-(isopropylamino)pyridin-3-yl)-1,3,4-thiadiazol-2-yl)-3-azabicyclo[3.2.1]octan-8-yl)carbamate] | 14.7 nM | 1.97 nM |  |
| CC(C)Nc1cc(-c2ccc3cc(C#N)cnn23)ncc1-c1nnc(N2C[C@H]3CC[C@@H](C2)[C@@H]3N)s1 [Example 60, 7-(5-(5-((1R,5S,8s)-8-amino-3-azabicyclo[3.2.1]octan-3-yl)-1,3,4-thiadiazol-2-yl)-4-(isopropylamino)pyridin-2-yl)pyrrolo[1,2-b]pyridazine-3-carbonitrile] | 8.5 nM | 0.97 nM |  |
| CC(C)Nc1cc(-c2ccc3cc(C#N)cnn23)ncc1-c1nnc(N2C[C@H]3CC[C@@H](C2)[C@@H]3NC(=O)C(C)(C)O)s1 [Example 85, N-((1R,5S,8s)-3-(5-(6-(3-cyanopyrrolo[1,2-b]pyridazin-7-yl)-4-(isopropylamino)pyridin-3-yl)-1,3,4-thiadiazol-2-yl)-3-azabicyclo[3.2.1]octan-8-yl)-2-hydroxy-2-methylpropanamide] | 3.3 nM | 1.04 nM |  |
| C[C@H](C#N)Nc1cc(-c2ccc3cc(C#N)cnn23)ncc1-c1nnc(N2C[C@H]3CC[C@@H](C2)[C@@H]3NC(=O)C(C)(C)O)s1 [Example 86, N-((1R,5S,8S)-3-(5-(4-(((R)-1-cyanoethyl)amino)-6-(3-cyanopyrrolo[1,2-b]pyridazin-7-yl)pyridin-3-yl)-1,3,4-thiadiazol-2-yl)-3-azabicyclo[3.2.1]octan-8-yl)-2-hydroxy-2-methylpropanamide] | 0.6 nM | 0.65 nM |  |
| CC(C)(O)C(=O)N[C@@H]1[C@@H]2CC[C@H]1CN(c1nnc(-c3cnc(-c4ccc5cc(C#N)cnn45)cc3NC3COC3)s1)C2 [Example 87, N-((1R,5S,8s)-3-(5-(6-(3-cyanopyrrolo[1,2-b]pyridazin-7-yl)-4-(oxetan-3-ylamino)pyridin-3-yl)-1,3,4-thiadiazol-2-yl)-3-azabicyclo[3.2.1]octan-8-yl)-2-hydroxy-2-methylpropanamide] | 2.1 nM | 0.6 nM |  |
| CC(C)Nc1cc(-c2ccc3cc(C#N)cnn23)ncc1-c1nnc(N2C[C@H]3CC[C@@H](C2)[C@@H]3NC(=O)[C@H]2C[C@](C)(O)C2)s1 [Example 92, (1r,3R)-N-((1R,5S,8s)-3-(5-(6-(3-cyanopyrrolo[1,2-b]pyridazin-7-yl)-4-(isopropylamino)pyridin-3-yl)-1,3,4-thiadiazol-2-yl)-3-azabicyclo[3.2.1]octan-8-yl)-3-hydroxy-3-methylcyclobutane-1-carboxamide] | 5 nM | 1.72 nM |  |
| CC(C)Nc1cc(-c2ccc3cc(C#N)cnn23)ncc1-c1nnc(N2C[C@H]3CC[C@@H](C2)[C@@H]3NC(=O)[C@H]2C[C@@](C)(O)C2)s1 [Example 93, (1s,3S)-N-((1R,5S,8s)-3-(5-(6-(3-cyanopyrrolo[1,2-b]pyridazin-7-yl)-4-(isopropylamino)pyridin-3-yl)-1,3,4-thiadiazol-2-yl)-3-azabicyclo[3.2.1]octan-8-yl)-3-hydroxy-3-methylcyclobutane-1-carboxamide] | 5.9 nM | 1.78 nM |  |
| CC(C)Nc1cc(-c2ccc3cc(C#N)cnn23)ncc1-c1nnc(N2C[C@H]3CC[C@@H](C2)[C@@H]3NC(=O)C2(C)COC2)s1 [Example 94, N-((1R,5S,8s)-3-(5-(6-(3-cyanopyrrolo[1,2-b]pyridazin-7-yl)-4-(isopropylamino)pyridin-3-yl)-1,3,4-thiadiazol-2-yl)-3-azabicyclo[3.2.1]octan-8-yl)-3-methyloxetane-3-carboxamide] | 4 nM | 0.9 nM |  |
| CC(C)Nc1cc(-c2ccc3cc(C#N)cnn23)ncc1-c1nnc(N2C[C@H]3CC[C@@H](C2)[C@@H]3NC(=O)C2(C)CCOCC2)s1 [Example 95, N-((1R,5S,8s)-3-(5-(6-(3-cyanopyrrolo[1,2-b]pyridazin-7-yl)-4-(isopropylamino)pyridin-3-yl)-1,3,4-thiadiazol-2-yl)-3-azabicyclo[3.2.1]octan-8-yl)-4-methyltetrahydro-2H-pyran-4-carboxamide] | 4.1 nM | 0.7 nM |  |
| CC(C)Nc1cc(-c2ccc3cc(C#N)cnn23)ncc1-c1nnc(N2C[C@H]3CC[C@@H](C2)[C@@H]3NC(=O)C(C)(C)C(=O)O)s1 [Example 97, 3-(((1R,5S,8s)-3-(5-(6-(3-cyanopyrrolo[1,2-b]pyridazin-7-yl)-4-(isopropylamino)pyridin-3-yl)-1,3,4-thiadiazol-2-yl)-3-azabicyclo[3.2.1]octan-8-yl)amino)-2,2-dimethyl-3-oxopropanoic acid] | 21.7 nM | 0.82 nM |  |
